Measured values from ChEMBL document CHEMBL5620386, “Synthesis, biological screening and in silico studies of new N-phenyl-4-(1,3-diaryl-1H-pyrazol-4-yl)thiazol-2-amine derivatives as potential antifungal and antitubercular agents” (Eur J Med Chem, 2023).
≈ marks a conversion by molar mass, not a printed value. Where “and” joins values, the source holds several entries; their conditions need not be identical. Equal entries are not always repeated. Calls of active or inactive are those of the source. The rule behind the calls is not given here.

Tests used:
[1] = tested on: Proteus mirabilis; test: Antimicrobial activity against Proteus mirabilis NCIM 2388 assessed as absence of growth by well diffusion method; format: functional
[2] = tested on: Staphylococcus aureus; test: Antimicrobial activity against Staphylococcus aureus NCIM 2178 assessed as zone of inhibition by well diffusion method; format: functional
[3] = tested on: Bacillus subtilis; test: Antimicrobial activity against Bacillus subtilis NCIM 2063 assessed as absence of growth by well diffusion method; format: functional
[4] = tested on: Staphylococcus aureus; test: Antimicrobial activity against Staphylococcus aureus NCIM 2178 assessed as absence of growth by well diffusion method; format: functional
[5] = tested on: Bacillus subtilis; test: Antimicrobial activity against Bacillus subtilis NCIM 2063 assessed as zone of inhibition by well diffusion method; format: functional
[6] = tested on: Proteus mirabilis; test: Antimicrobial activity against Proteus mirabilis NCIM 2388 assessed as zone of inhibition by well diffusion method; format: functional
[7] = tested on: Aspergillus niger; test: Antifungal activity against Aspergillus niger ATCC 504 assessed as absence of growth by well diffusion method; format: functional
[8] = tested on: Candida albicans; test: Antifungal activity against Candida albicans NCIM 3100 assessed as zone of inhibition by well diffusion method; format: functional
[9] = tested on: Aspergillus niger; test: Antifungal activity against Aspergillus niger ATCC 504 assessed as zone of inhibition by well diffusion method; format: functional
[10] = tested on: Mycobacterium tuberculosis; test: Antitubercular activity Mycobacterium tuberculosis H37Rv strain ATCC No- 27294 assessed as prevention of color change from blue to pink using Almar Blue measured after 24 hrs by MABA assay; format: functional
[11] = tested on: Escherichia coli; test: Antimicrobial activity against Escherichia coli NCIM 2574 assessed as zone of inhibition by well diffusion method; format: functional
[12] = Cytotoxicity against mouse 3T3-L1 cells assessed as cell viability at 25 ug/ml measured after 24 hrs by MTT assay relative to control; format: toxicity, cell-based; settings: at 25 µg/mL, read-out: Activity
[13] = Cytotoxicity against mouse 3T3-L1 cells assessed as cell viability at 12.5 ug/ml measured after 24 hrs by MTT assay relative to control; format: toxicity, cell-based; settings: at 12.5 µg/mL, read-out: Activity

CN[C@@H]1[C@H](O[C@H]2[C@H](O[C@H]3[C@H](O)[C@@H](O)[C@H](N=C(N)N)[C@@H](O)[C@@H]3N=C(N)N)O[C@@H](C)[C@]2(O)C=O)O[C@@H](CO)[C@H](O)[C@H]1O [STREPTOMYCIN]
MIC [1]: 7.82 µg/mL and 25.5 µM | inhibition zone (IZ) [2]: 21 mm | MIC [3]: 7.82 µg/mL and 13.4 µM | MIC [4]: 7.82 µg/mL and 13.4 µM | inhibition zone (IZ) [5]: 18.5 mm | inhibition zone (IZ) [6]: 21 mm | MIC [7]: inactive

OC(Cn1cncn1)(Cn1cncn1)c1ccc(F)cc1F [FLUCONAZOLE]
MIC [1]: inactive | inhibition zone (IZ) [8]: 21.6 mm | MIC [3]: inactive | MIC [4]: inactive | MIC [7]: 7.82 µg/mL and 25.5 µM

Fc1ccc(-c2nn(-c3ccc(F)cc3)cc2-c2csc(Nc3ccc(Cl)cc3)n2)cc1
MIC [1]: 125 µg/mL (≈ 269 µM) | inhibition zone (IZ) [2]: 14 mm | inhibition zone (IZ) [8]: 10 mm | MIC [3]: 125 µg/mL (≈ 269 µM) | inhibition zone (IZ) [9]: 19.6 mm | MIC [10]: 25 µg/mL and 53.9 µM | MIC [4]: 125 µg/mL (≈ 269 µM) | inhibition zone (IZ) [11]: 12 mm | inhibition zone (IZ) [5]: 14 mm | inhibition zone (IZ) [6]: 15 mm | MIC [7]: 15.6 µg/mL and 33.7 µM

Cc1ccc(Nc2nc(-c3cn(-c4ccc(F)cc4)nc3-c3ccccc3)cs2)cc1
MIC [1]: 125 µg/mL (≈ 293 µM) | inhibition zone (IZ) [2]: 17 mm | inhibition zone (IZ) [8]: 10.2 mm | MIC [3]: 125 µg/mL (≈ 293 µM) | inhibition zone (IZ) [9]: 18.6 mm | MIC [10]: 3.12 µg/mL and 7.34 µM | MIC [4]: 62.5 µg/mL and 147 µM | inhibition zone (IZ) [11]: inactive | inhibition zone (IZ) [5]: 14.2 mm | inhibition zone (IZ) [6]: 14.2 mm | MIC [7]: 15.6 µg/mL and 36.7 µM | viability at 24 h, 25 ug/ml [12]: 96.2% | viability at 24 h, 12.5 ug/ml [13]: 102%

COc1ccc(Nc2nc(-c3cn(-c4ccc(F)cc4)nc3-c3ccc(F)cc3)cs2)cc1
MIC [1]: 125 µg/mL (≈ 271 µM) | inhibition zone (IZ) [2]: 15 mm | inhibition zone (IZ) [8]: 11.6 mm | MIC [3]: 7.82 µg/mL (≈ 17 µM) | inhibition zone (IZ) [9]: 19 mm | MIC [10]: 3.12 µg/mL and 6.78 µM | MIC [4]: 125 µg/mL (≈ 271 µM) | inhibition zone (IZ) [11]: inactive | inhibition zone (IZ) [5]: 12 mm | inhibition zone (IZ) [6]: 14 mm | MIC [7]: 15.6 µg/mL and 34 µM | viability at 24 h, 25 ug/ml [12]: 102% | viability at 24 h, 12.5 ug/ml [13]: 113%

COc1ccc(Nc2nc(-c3cn(-c4ccccc4)nc3-c3ccc(Cl)cc3)cs2)cc1
MIC [1]: 125 µg/mL (≈ 272 µM) | inhibition zone (IZ) [2]: 15 mm | inhibition zone (IZ) [8]: 10 mm | MIC [3]: 125 µg/mL (≈ 272 µM) | inhibition zone (IZ) [9]: 18.2 mm | MIC [10]: 1.6 µg/mL and 3.49 µM | MIC [4]: 125 µg/mL (≈ 272 µM) | inhibition zone (IZ) [11]: inactive | inhibition zone (IZ) [5]: 14.8 mm | inhibition zone (IZ) [6]: 14 mm | MIC [7]: 15.6 µg/mL and 32.5 µM

Cc1ccc(Nc2nc(-c3cn(-c4ccc(F)cc4)nc3-c3ccc(F)cc3)cs2)cc1
MIC [1]: 125 µg/mL (≈ 281 µM) | inhibition zone (IZ) [2]: 13 mm | inhibition zone (IZ) [8]: 10.2 mm | MIC [3]: 15.6 µg/mL and 35.2 µM | inhibition zone (IZ) [9]: 18.6 mm | MIC [10]: 3.12 µg/mL and 7.03 µM | inhibition zone (IZ) [11]: inactive | inhibition zone (IZ) [5]: 18 mm | inhibition zone (IZ) [6]: 15 mm | MIC [7]: 15.6 µg/mL and 35.2 µM | viability at 24 h, 25 ug/ml [12]: 114% | viability at 24 h, 12.5 ug/ml [13]: 99.5%

Clc1ccc(Nc2nc(-c3cn(-c4ccccc4)nc3-c3ccc(Cl)cc3)cs2)cc1
MIC [1]: 125 µg/mL (≈ 270 µM) | inhibition zone (IZ) [2]: 14.2 mm | inhibition zone (IZ) [8]: 10.4 mm | inhibition zone (IZ) [9]: 17.4 mm | MIC [10]: 1.6 µg/mL and 3.46 µM | MIC [4]: 125 µg/mL (≈ 270 µM) | inhibition zone (IZ) [11]: inactive | inhibition zone (IZ) [5]: 11.6 mm | inhibition zone (IZ) [6]: 14 mm | MIC [7]: 31.2 µg/mL and 67.5 µM | viability at 24 h, 25 ug/ml [12]: 99.2% | viability at 24 h, 12.5 ug/ml [13]: 118%

Cc1ccc(Nc2nc(-c3cn(-c4ccccc4)nc3-c3ccc(Cl)cc3)cs2)cc1
MIC [1]: 125 µg/mL (≈ 282 µM) | inhibition zone (IZ) [2]: 15 mm | inhibition zone (IZ) [8]: 10.2 mm | inhibition zone (IZ) [9]: 18.2 mm | MIC [10]: 1.6 µg/mL and 3.61 µM | MIC [4]: 125 µg/mL (≈ 282 µM) | inhibition zone (IZ) [11]: inactive | inhibition zone (IZ) [5]: 12 mm | inhibition zone (IZ) [6]: 14 mm | MIC [7]: 15.6 µg/mL and 35.3 µM | viability at 24 h, 25 ug/ml [12]: 72.9% | viability at 24 h, 12.5 ug/ml [13]: 83.8%

c1ccc(Nc2nc(-c3cn(-c4ccccc4)nc3-c3ccccc3)cs2)cc1
MIC [1]: 125 µg/mL (≈ 317 µM) | inhibition zone (IZ) [2]: 16 mm | inhibition zone (IZ) [8]: 11.2 mm | inhibition zone (IZ) [9]: 18.8 mm | MIC [10]: 1.6 µg/mL and 4.06 µM | MIC [4]: 62.5 µg/mL and 1590 µM | inhibition zone (IZ) [11]: inactive | inhibition zone (IZ) [5]: 11.2 mm | inhibition zone (IZ) [6]: 15 mm | MIC [7]: 15.6 µg/mL and 39.6 µM | viability at 24 h, 25 ug/ml [12]: 90.5% | viability at 24 h, 12.5 ug/ml [13]: 97.5%

Fc1ccc(-n2cc(-c3csc(Nc4ccccc4)n3)c(-c3ccc(Cl)cc3)n2)cc1
MIC [1]: 125 µg/mL (≈ 280 µM) | inhibition zone (IZ) [2]: 15 mm | inhibition zone (IZ) [8]: 11 mm | inhibition zone (IZ) [9]: 18.2 mm | MIC [10]: 1.6 µg/mL and 3.58 µM | MIC [4]: 125 µg/mL (≈ 280 µM) | inhibition zone (IZ) [11]: inactive | inhibition zone (IZ) [5]: 13.4 mm | inhibition zone (IZ) [6]: 14.2 mm | MIC [7]: 15.6 µg/mL and 35 µM | viability at 24 h, 25 ug/ml [12]: 62.6% | viability at 24 h, 12.5 ug/ml [13]: 69.2%

Fc1ccc(-c2nn(-c3ccc(F)cc3)cc2-c2csc(Nc3ccccc3)n2)cc1
MIC [1]: 125 µg/mL (≈ 290 µM) | inhibition zone (IZ) [2]: 15 mm | inhibition zone (IZ) [8]: 12.2 mm | MIC [3]: 125 µg/mL (≈ 290 µM) | inhibition zone (IZ) [9]: 19.25 mm | MIC [10]: 25 µg/mL and 58.1 µM | MIC [4]: 125 µg/mL (≈ 290 µM) | inhibition zone (IZ) [11]: inactive | inhibition zone (IZ) [5]: 14 mm | inhibition zone (IZ) [6]: 15.2 mm | MIC [7]: 15.6 µg/mL and 36.3 µM
